Experimental findings from patent publication US9394544B2, “Ameliorating oxidative stress in neurodegenerative disease via Nox1 targeting” (University of Central Florida Research Foundation, Inc., priority 2013, dated 2016) are described below.

One test deals with Nox1. Kind of test: Nox1 expression (RT-PCR, immunoblot) in N27 cells exposed to toxins. It counts as cell-based, rat. The following applies: N27 cells. The source says:
The NADPH oxidase is a multi-subunit enzyme that consists of the catalytic subunits (Nox isoforms) together with the regulatory subunits including p22phox, p47phox, p40phox, p67phox, Nox organizer 1 (Noxo1), Nox activator 1 (Noxa1), and small GTPase Rac1. In order to test whether dopaminergic (DA) cells are equipped with the NOX components, N27, a well-established rat DA cell line was examined (Prasad et al. 1994). The mRNAs encoding each Nox isoform and regulatory subunits were detected using RT-PCR. Since transcriptional induction of Nox1 and Nox4 has already been reported in several tissues under a variety of stimuli, transcripts were determined in both nontreated and 6-hydroxydopamine (6-OHDA), a DA neurodegenerative compound, treated DA cells. ROS generation as induced by 6-OHDA (100 μM) and subsequent cell death was observed. All Nox isoforms (Nox1, Nox2, Nox4, Duox1 and Duox2) except Nox3 and Nox5 were detected (FIG. 1A). […] Mitochondria, which have long been considered as a major source of ROS, play a key role in Nox1-mediated superoxide generation (Desouki et al. 2005). […] Cytoplasmic regulatory subunits including p47phox, Noxa1, and Noxo1 were constitutively expressed in DA cells as well (FIG. 1A). Noxa1 and Noxo1 are homologues of p67phox and p47phox, respectively. They are involved in Nox1-mediated superoxide generation (Banfi et al. 2003, Geiszt et al. 2003). […] The activation of a small GTPase Rac1 is indispensable for Nox1 and Nox2 activation (Bokoch 2002). GTP-bound active Rac1 was measured in DA cells treated with 6-OHDA for various duration from 1 h to 6 h.
Total RNA was extracted from N27 cells using Trizol reagent (Invitrogen, Carlsbad, Calif.). Reverse transcription was performed for 1 h at 42° C. with 1 μg of total RNA using 20 unit/μl of AMV reverse transcriptase (Roche Applied Science, Indianapolis, Ind.), and oligo-p(dT)15 as a primer. The samples were then heated at 99° C. for 5 min to terminate the reaction. The cDNA obtained from 1 μg total RNA was used as a template for PCR amplification. Oligonucleotide primers were designed based on Genebank entries for rat NOX1 (sense, 5′-[…]-3′ SEQ ID NO. 1; antisense, 5′-[…]-3′ SEQ ID NO. 2), rat NOX2 (sense, 5′-[…]-3′ SEQ ID NO. 3; antisense, 5′-[…]-3′ SEQ ID NO. 4), rat NOX4 (sense, 5′-[…]-3′ SEQ ID NO. 5; antisense, 5′-[…]-3′ SEQ ID NO. 6), rat NOXA1 (sense, 5′-[…]-3′ SEQ ID NO. 7; antisense, 5′-[…]-3′ SEQ ID NO. 8), rat NOXO1 (sense, 5′-[…]-3′ SEQ ID NO. 9; antisense, 5′-[…]-3′ SEQ ID NO. 10), rat p47 (sense, 5′-[…]-3′ SEQ ID NO 11; antisense, 5′-[…]-3′ SEQ ID NO. 12), rat Duox1 (sense, 5′-[…]-3′ SEQ ID NO. 13; antisense, 5′-[…]-3′SEQ ID NO. 14), rat Duox2 (sense, 5′-[…]-3′ SEQ ID NO. 15; antisense, 5′-[…]-3′ SEQ ID NO. 16) and rat GAPDH (sense, 5′-[…]-3′ SEQ ID NO. 17; antisense, 5′-[…]-3′ SEQ ID NO. 18). PCR mixes contained 10 μl of 2×PCR buffer, 1.25 mM of each dNTP, 10 pmol of each forward and reverse primer, and 2.5 units of Taq polymerase in the final volume of 20 μl. Amplification was performed in 35 cycles at 60° C., 30 sec; 72° C., 1 min; 94° C., 30 sec. After the last cycle, all samples were incubated for an additional 10 min at 72° C. for final extension step. PCR fragments were analyzed on 1.2% agarose gel in 0.5×TAE containing ethidium bromide. Amplification of GAPDH, a relatively invariant internal reference RNA, was performed in parallel, and cDNA amounts were normalized against GAPDH mRNA levels. The primer set specifically recognized only the gene of interest as indicated by amplification of a single band of expected size. […]
For orientation: A western blot detects proteins with antibodies after separation by electrophoresis.

Test [1] relates to Flag-tagged wild-type (WT) α-synuclein. Kind of test: Aggregation of overexpressed flag-tagged WT α-synuclein in N27 cells exposed to PQ. It counts as cell-based, rat. As to the method: Human α-synuclein was cloned into the p3xFLAG-myc-CMV-23 expression vector (Sigma) for N- and C-terminal tagging with FLAG and Myc, respectively. For transient overexpression of tagged α-synuclein, N27 cells were plated onto 24-well plates with coverslips at 0.5×10^5 cells per well 1 d before transfection. The next day, cells were transiently transfected with FLAG-WTsyn-myc. Briefly, 1 μg of plasmid DNA was mixed with 6 μl of Lipofectamine 2000 (Invitrogen) in 100 μl of Opti-MEM for 20 min before addition in the culture. After 6 h of incubation, the culture medium was changed and 100 μl of Nox1 shRNA/LVX viral particle was added to each well. Cells were maintained for an additional 36 h before treatment with 800 μM or 1000 μM PQ for 8 and 24 h.
After each respective treatment, cells were fixed in 4% paraformaldehyde (PFA) for 20 min and permeabilized with 0.1% Triton X-100 in PBS for 10 min. Blocking was performed by incubation with 20% goat or donkey serum in PBS containing 0.1% Tween 20 for 90 min at room temperature. […] For quantification of Flag^+ and α-synuclein^+ cells, >30 different fields per coverslip were analyzed on a Nikon inverted fluorescent microscope under a 20× and 40× magnification.

On to `NCCc1cc(O)c(O)cc1O` [6-OHDA, 6-hydroxydopamine], for which the “Nox1 mRNA (RT-PCR)” value in the test with Nox1 (100 μM, 6 h) is reported as “robustly induced”. The “Nox1 expression (immunoblot)” value in the test with Nox1 (24 h) is listed as “induced Nox1 expression in a dose-dependent manner”.
Take `C[n+]1ccc(-c2cc[n+](C)cc2)cc1` [PQ, paraquat]: the “increase of flag-tagged WT α-synuclein aggregation vs control cells” value in test [1] was determined as 2.5 fold.
